Source: the supplement of paper PMC10307832

Compound: O=C(O)C(Cc1ccccc1[N+](=O)[O-])=NNc1nc(-c2ccc(Cl)c(Cl)c2)cs1 (mixture of isomers) [4EGI-1] + COc1cc2c(Oc3ccc(NC(=O)C4(C(=O)Nc5ccc(F)cc5)CC4)cc3F)ccnc2cc1OCCCN1CCOCC1 [Foretinib] (partner 0.25 µM)
Test: relative viability (nuclei count vs DMSO), 5 days (fraction); higher = more cells survive
Details: first compound 50 µM
In short: (§1)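 A single step with final 0.05% Triton X-100, 1% formaldehyde and 1 ug/ml Hoechst fixed the cells and stained nuclei 5 days after treatment. Lung cancer cell lines in 1536-well plates had been treated by pin tool the day after seeding with one drug alone or a fixed anchor-drug dose plus five library-drug doses (not always all listed) in √10 steps, and nuclei were counted on 4× images. Relative viability is the ratio of nuclei in treated wells to nuclei in vehicle wells, taken as the median of duplicate plates.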

Going from NCI-H2228 to NCI-H2347, the relative viability rises from 0.166 to 0.933.

Cell Line NCI-H2405 has a relative viability of 1.02.

Compound: O=C(O)C(Cc1ccccc1[N+](=O)[O-])=NNc1nc(-c2ccc(Cl)c(Cl)c2)cs1 (mixture of isomers) [4EGI-1] + CC1(C)CCC(c2ccc(Cl)cc2)=C(CN2CCN(c3ccc(C(=O)NS(=O)(=O)c4ccc(N[C@H](CCN5CCOCC5)CSc5ccccc5)c(S(=O)(=O)C(F)(F)F)c4)cc3)CC2)C1 [Navitoclax] (partner 0.5 µM)
Test: as above
Details: first compound 0.5 µM
In short: as §1

First: LU99A
Second: LXF-289
The relative viability of the first is lower: 0.765 for the first, 1.01 for the second.

Going from NCI-H23 to NCI-H322M, the relative viability rises from 1.12 to 1.21.

Compared with NCI-H441, NCI-H460 is higher in relative viability: 0.467 for the first, 1.22 for the second.

Going from NCI-H520 to NCI-H596, the relative viability falls from 1.23 to 0.956.

First: NCI-H647
Second: NCI-H838
The relative viability of the first is higher: 1.27 for the first, 1.24 for the second.

First: NCI-H1355
Second: NCI-H1395
The relative viability of the first is lower: 1.07 for the first, 1.38 for the second.

Compared with NCI-H1437, NCI-H1650 is higher in relative viability: 1.19 for the first, 1.23 for the second.

Compared with NCI-H1651, NCI-H1666 is lower in relative viability: 1.17 for the first, 1.14 for the second.

Compared with NCI-H1734, NCI-H1755 is higher in relative viability: 0.931 for the first, 1.02 for the second.

First: NCI-H1793
Second: NCI-H1915
The relative viability of the first is lower: 0.676 for the first, 0.825 for the second.

First: NCI-H1944
Second: NCI-H1975
The relative viability of the first is lower: 1.19 for the first, 1.2 for the second.

Going from NCI-H1993 to NCI-H2009, the relative viability rises from 0.952 to 1.19.

Going from NCI-H2023 to NCI-H2085, the relative viability rises from 1 to 1.19.

First: NCI-H2087
Second: NCI-H2126
The relative viability of the first is higher: 1.08 for the first, 0.892 for the second.

First: NCI-H2170
Second: NCI-H2228
The relative viability of the first is lower: 0.671 for the first, 1.08 for the second.

Compared with NCI-H2347, NCI-H2405 is higher in relative viability: 0.972 for the first, 1.28 for the second.

Same assay, conditions: first compound 1.581 µM

First: LXF-289
Second: NCI-H322M
The relative viability of the first is lower: 0.933 for the first, 1.18 for the second.

Compared with NCI-H441, NCI-H520 is higher in relative viability: 0.552 for the first, 1.11 for the second.

Compared with NCI-H596, NCI-H1355 is higher in relative viability: 0.708 for the first, 0.95 for the second.

First: NCI-H1437
Second: NCI-H1651
The relative viability of the first is higher: 1 for the first, 0.914 for the second.

First: NCI-H1666
Second: NCI-H1734
The relative viability of the first is higher: 1.05 for the first, 0.901 for the second.

Going from NCI-H1755 to NCI-H1793, the relative viability falls from 0.995 to 0.49.

Compared with NCI-H1915, NCI-H1975 is higher in relative viability: 0.606 for the first, 1.05 for the second.

Going from NCI-H1993 to NCI-H2009, the relative viability rises from 0.895 to 1.21.

Going from NCI-H2085 to NCI-H2087, the relative viability falls from 1.01 to 0.883.

First: NCI-H2126
Second: NCI-H2170
The relative viability of the first is higher: 0.793 for the first, 0.515 for the second.

First: NCI-H2228
Second: NCI-H2347
The relative viability of the first is higher: 1.08 for the first, 0.586 for the second.

Work on NCI-H2405 yielded a relative viability of 0.628.

Same assay, conditions: first compound 5 µM

First: LU99A
Second: LXF-289
The relative viability of the first is lower: 0.87 for the first, 0.983 for the second.

Compared with NCI-H23, NCI-H322M is higher in relative viability: 0.947 for the first, 1.16 for the second.

Compared with NCI-H441, NCI-H460 is higher in relative viability: 0.449 for the first, 1.16 for the second.

First: NCI-H520
Second: NCI-H596
The relative viability of the first is higher: 1.14 for the first, 0.86 for the second.

Compared with NCI-H647, NCI-H838 is higher in relative viability: 1.12 for the first, 1.26 for the second.

Going from NCI-H1355 to NCI-H1395, the relative viability rises from 0.841 to 1.27.

Compared with NCI-H1437, NCI-H1650 is lower in relative viability: 1.04 for the first, 0.932 for the second.

Compared with NCI-H1651, NCI-H1666 is higher in relative viability: 0.965 for the first, 1.31 for the second.

First: NCI-H1734
Second: NCI-H1755
The relative viability of the first is higher: 0.96 for the first, 0.949 for the second.

First: NCI-H1793
Second: NCI-H1915
The relative viability of the first is lower: 0.463 for the first, 0.797 for the second.

Going from NCI-H1944 to NCI-H1975, the relative viability falls from 1.07 to 0.984.

Compared with NCI-H1993, NCI-H2009 is higher in relative viability: 0.77 for the first, 1.22 for the second.

Going from NCI-H2023 to NCI-H2085, the relative viability rises from 0.989 to 1.2.

First: NCI-H2087
Second: NCI-H2126
The relative viability of the first is higher: 0.999 for the first, 0.858 for the second.

First: NCI-H2170
Second: NCI-H2228
The relative viability of the first is lower: 0.584 for the first, 0.99 for the second.

Compared with NCI-H2347, NCI-H2405 is higher in relative viability: 0.776 for the first, 1.09 for the second.

Same assay, conditions: first compound 15.81 µM

Compared with LU99A, LXF-289 is lower in relative viability: 0.986 for the first, 0.915 for the second.

First: NCI-H23
Second: NCI-H322M
The relative viability of the first is lower: 0.883 for the first, 1.17 for the second.

First: NCI-H441
Second: NCI-H460
The relative viability of the first is lower: 0.511 for the first, 0.701 for the second.

Going from NCI-H520 to NCI-H596, the relative viability falls from 1.02 to 0.869.

Compared with NCI-H647, NCI-H838 is higher in relative viability: 0.995 for the first, 1.04 for the second.

Going from NCI-H1355 to NCI-H1395, the relative viability rises from 0.644 to 1.09.

First: NCI-H1437
Second: NCI-H1650
The relative viability of the first is higher: 0.395 for the first, 0.354 for the second.

Compared with NCI-H1651, NCI-H1666 is lower in relative viability: 1.01 for the first, 0.833 for the second.

First: NCI-H1734
Second: NCI-H1755
The relative viability of the first is lower: 0.851 for the first, 0.86 for the second.

First: NCI-H1793
Second: NCI-H1915
The relative viability of the first is lower: 0.54 for the first, 0.754 for the second.

Going from NCI-H1944 to NCI-H1975, the relative viability rises from 0.969 to 1.08.

First: NCI-H1993
Second: NCI-H2009
The relative viability of the first is lower: 0.7 for the first, 1.11 for the second.

Compared with NCI-H2023, NCI-H2085 is higher in relative viability: 0.626 for the first, 0.931 for the second.

First: NCI-H2087
Second: NCI-H2126
The relative viability of the first is lower: 0.647 for the first, 0.709 for the second.

First: NCI-H2170
Second: NCI-H2228
The relative viability of the first is lower: 0.573 for the first, 0.617 for the second.

Compared with NCI-H2347, NCI-H2405 is higher in relative viability: 0.861 for the first, 1.15 for the second.

Same assay, conditions: first compound 50 µM

First: LU99A
Second: LXF-289
The relative viability of the first is lower: 0.428 for the first, 0.784 for the second.

First: NCI-H23
Second: NCI-H322M
The relative viability of the first is lower: 0.708 for the first, 1.41 for the second.

First: NCI-H441
Second: NCI-H460
The relative viability of the first is higher: 0.203 for the first, 0.0476 for the second.

First: NCI-H520
Second: NCI-H596
The relative viability of the first is lower: 0.431 for the first, 0.805 for the second.

Compared with NCI-H647, NCI-H838 is lower in relative viability: 0.307 for the first, 0.218 for the second.

Going from NCI-H1355 to NCI-H1395, the relative viability falls from 0.677 to 0.566.

Going from NCI-H1437 to NCI-H1650, the relative viability rises from 0.178 to 0.286.

Going from NCI-H1651 to NCI-H1666, the relative viability falls from 0.33 to 0.248.

Going from NCI-H1734 to NCI-H1755, the relative viability rises from 0.492 to 0.833.

Going from NCI-H1793 to NCI-H1915, the relative viability rises from 0.388 to 0.596.

First: NCI-H1944
Second: NCI-H1975
The relative viability of the first is lower: 0.94 for the first, 1.18 for the second.

First: NCI-H1993
Second: NCI-H2009
The relative viability of the first is higher: 0.483 for the first, 0.17 for the second.

Compared with NCI-H2023, NCI-H2085 is higher in relative viability: 0.175 for the first, 0.743 for the second.

Going from NCI-H2087 to NCI-H2126, the relative viability rises from 0.218 to 0.806.

First: NCI-H2170
Second: NCI-H2228
The relative viability of the first is lower: 0.354 for the first, 0.931 for the second.

First: NCI-H2347
Second: NCI-H2405
The relative viability of the first is higher: 0.721 for the first, 0.58 for the second.
